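Step 1: Grow cells in 96-well plates. Step 2: Expose to compound for 48 hours at 5 concentrations. Step 3: Interpolate endpoints linearly; if unreached, use highest concentration. At the GI50, growth is halved. TGI denotes the concentration required for complete inhibition of growth.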
Legend:
Assay in all cases: NCI tumour cell line growth inhibition, 48 h
HL-60(TB) leukemia = test system: HL-60(TB) leukemia
SR leukemia = test system: SR leukemia
SK-MEL-5 melanoma = test system: SK-MEL-5 melanoma
RPMI-8226 leukemia = test system: RPMI-8226 leukemia
SK-OV-3 ovarian = test system: SK-OV-3 ovarian
UACC-62 melanoma = test system: UACC-62 melanoma
SF-295 CNS = test system: SF-295 CNS
HCT-116 colon = test system: HCT-116 colon
CCRF-CEM leukemia = test system: CCRF-CEM leukemia
SNB-75 CNS = test system: SNB-75 CNS

SMILES	TGI (HL-60(TB) leukemia) [µM]	TGI (SR leukemia) [µM]	TGI (SK-MEL-5 melanoma) [µM]	TGI (RPMI-8226 leukemia) [µM]	TGI (SK-OV-3 ovarian) [µM]	TGI (UACC-62 melanoma) [µM]	TGI (SF-295 CNS) [µM]	TGI (HCT-116 colon) [µM]	TGI (CCRF-CEM leukemia) [µM]	GI50 (HL-60(TB) leukemia) [µM]	GI50 (SK-MEL-5 melanoma) [µM]	GI50 (RPMI-8226 leukemia) [µM]	GI50 (SK-OV-3 ovarian) [µM]	GI50 (UACC-62 melanoma) [µM]	GI50 (SF-295 CNS) [µM]	GI50 (HCT-116 colon) [µM]	GI50 (CCRF-CEM leukemia) [µM]	GI50 (SNB-75 CNS) [µM]	TGI (SNB-75 CNS) [µM]	GI50 (SR leukemia) [µM]
Cc1c(Cl)ccc2c1NC(=O)C2(O)C1Cc2ccccc2C1=O (stereo not drawn)	65.4	> 100	> 100	> 100	> 100	> 100	> 100	> 100	> 100	–	–	–	–	–	–	–	–	–	–	–
Cc1ccc(S(=O)(=O)n2cc(C(=O)C(=O)Nc3ccncc3)c3ccccc32)cc1	3.66	–	21.3	> 100	71.2	> 46.7	9.57	23.1	> 100	0.635	0.785	1.45	19.6	0.829	1.67	0.465	4.53	1.72	16.3	–
C=CCN(N=O)C(=O)N(CCC)CCCCC(NC(C)=O)C(=O)NCc1ccccc1 (stereo not drawn)	54.4	–	> 100	> 100	> 100	> 100	> 100	–	> 100	–	–	–	–	–	–	–	–	–	> 100	–
CN=S(=O)(C[C@]1(O)CC2OC1C1OC(C)(C)OC21)c1ccccc1 (stereo partly drawn)	> 100	–	> 100	> 100	> 100	> 100	> 100	> 100	> 100	–	–	–	–	–	–	–	–	–	> 100	–
CC1OC(O)CC(OC(=O)c2ccccc2)C1OC(=O)c1ccccc1 (stereo not drawn)	36	37.1	31.4	31.8	–	31.5	> 100	23.3	38.2	–	–	–	–	–	–	–	–	–	–	–
[N-]=[N+]=CC(=O)OCC(N)C(=O)O (stereo not drawn)	> 100	> 100	14.5	> 100	> 100	> 100	–	> 100	> 100	0.918	0.563	1.8	0.808	2.06	–	0.448	0.623	2.68	> 100	0.638
COc1ccc(OC)c2cc(C3(C)SCCCS3)ccc12	> 100	–	> 100	> 100	> 100	> 100	> 100	> 100	> 100	–	–	–	–	–	–	–	–	–	> 100	–
COc1cc2c(cc1OC)[C@@]1(C)C(=O)c3cc4c(cc3[C@H]1N(C)C2=O)OCO4	–	–	> 100	> 100	> 100	> 100	> 100	> 100	> 100	–	45.5	33.9	95.5	26	43.3	43.6	38	–	–	–
O=C(CC(=O)C(F)(F)F)c1csc2ccccc12	–	50.1	> 100	91.6	63.6	> 100	37	> 100	> 100	–	–	–	–	–	–	–	–	–	–	–
COc1ccc(-c2nc(-c3nc4cc(C)c(C)cc4[nH]3)cc3c2[nH]c2ccccc23)cc1	5.96	7.17	12.6	5.16	48.1	6.7	–	13	7.56	2.59	2.9	1.77	13	2.25	–	3.22	2.51	3.44	35	2.33
Nc1nc(N)c(-c2ccc(Cl)cc2)c(CCC(=O)Nc2cccc(C(F)(F)F)c2)n1	> 100	> 100	> 100	–	> 100	> 100	> 100	> 100	> 100	–	–	–	–	–	–	–	–	–	> 100	–
COc1ccc2c(c1)Cc1c-2c(NN)nc2ccccc12	> 100	> 100	58.3	48.3	77.6	> 100	> 100	75.7	–	27.9	22	17.6	16.9	25	25.7	24.4	–	42.8	> 100	9.94
COc1ccc2c(c1)[n+]([O-])c(-c1nc3ccccc3s1)c(N)[n+]2[O-]	> 100	> 100	> 100	> 100	> 100	–	> 100	> 100	–	–	–	–	–	–	–	–	–	–	> 100	–
CC[C@H](C)C(=O)O[C@H]1CCC=C2C=C[C@H](C)C(CCC3C[C@@H](O)CC(=O)O3)[C@H]21 (stereo partly drawn)	52.9	–	71.4	–	> 100	61.9	> 100	62.1	> 100	11.7	3.78	–	–	4.75	1.58	2.99	> 100	1.33	7.85	–
O=C1c2ccccc2C(=O)c2nc(-c3ccccc3)c(-c3ccccc3)nc21	–	–	8.2	> 100	> 100	> 100	> 100	> 100	> 100	–	–	–	–	–	–	–	–	–	29.2	–
O=C(CC1(O)C(=O)Nc2c(Cl)cc(Cl)cc21)c1ccc2ccccc2c1 (stereo not drawn)	14.6	–	18.8	29.8	24.6	14.6	21.3	13.4	39	–	–	–	–	–	–	–	–	–	13.5	–
CCOC(=O)C1=C(C)N(NC(=O)c2ccccc2)C2(O)CCCC12C(=O)OCC (stereo not drawn)	> 100	> 100	> 100	> 100	> 100	> 100	> 100	> 100	–	–	–	–	–	–	–	–	–	–	> 100	–
O=C(C=Nc1ccccc1C(=O)[O-])c1cccs1.O=C(C=Nc1ccccc1C(=O)[O-])c1cccs1.[Cu+2]	> 100	> 100	–	–	> 100	> 100	> 100	> 100	> 10	–	–	–	–	–	–	–	–	–	> 10	–

From PubChem BioAssay (NCI)
